Measured values reported in patent US10781182B2, “Compounds, process for obtaining the compounds, pharmaceutical composition, use of the compounds and method for treating psychiatric disorders and/or sleep disorders” (ACHÉ LABORATÓRIOS FARMACÊUTICOS S.A., priority 2016, dated 2020).

Assays:
[1] = tested on: rat hepatocytes (Sprague-Dawley males); test: Intrinsic clearance in cryopreserved rat hepatocytes; type: in vitro ADME
Protocol: (§1) Cryopreserved hepatocytes from humans, rats (Sprague-Dawley males) and from mice (CD-1 males) were used for incubation at different times (0, 0.5, 1, 1.5, 2 hours) at 37° C. followed by HPLC-MS/MS detection. The aim was to verify the clearance time of the test substance on hepatocytes. The experiment was performed on a 96-well plate and the cryopreserved hepatocytes were thawed and resuspended in Krebs-Heinslet buffer(pH 7.3). The reaction was started by adding each test compound to each cell suspension and performing the incubation at the times indicated above. The reaction was quenched with addition of acetonitrile in the wells and detection by HPLC-MS/MS (mass spectrometry). MS/MS is performed by combining two mass detectors into a single instrument.

CYP2C9 and CYP2C19 = conditions: cited from earlier work
CYP2C8 = CYP2C8 (Homo sapiens (Human), UniProt P10632); test: CYP inhibition, fluorogenic substrate; type: in vitro ADME; set-up: dose or concentration left out as unconfirmed; conditions: recombinant CYP2C8, pH 7.4
Source text: (§2) The CYP inhibition test used fluorogenic substrates specific to each CYP to check for inhibition thereof by detection of the expected metabolite using a fluorimetric method. Recombinant CYPs (CYP2B6, CYP2C8, […], CYP2C19, CYP2D6, CYP3A4) from specific humans for each cytochrome family, subfamily and polypeptide were used. The following were used as substrates: CEC (3-Cyano-7-Ethoxycoumarin) which forms as metabolite CHC (3-Cyano-7-Hydroxycoumarin); EFC (7-Ethoxy-4-trifluoromethyl coumarin), forming the metabolite HFC (7-Hydroxytri fluoromethylcoumarin); DBF (Dibenzylfluorescein) and its respective fluorescein metabolite; MFC (7-Methoxy-4-trifluoromethylcoumarin) which forms the metabolite HFC (7-Hydroxytrifluoromethylcoumarin); BFC (7-Benzyloxy-Trifluoromethylcoumarin) and its metabolite HFC; and BzRes (benzyloxyresorufin) to form resofurine. The detection of the metabolite was done with a fluorimetric method: analytical technique to identify and characterize the amount of substance by excitation using a beam of ultraviolet light and measurement of the emitted fluorescence. For detection, a 96-well plate was used. Each sample was tested in two wells (n=2) as standard condition. At least 04 wells were separated for vehicle (control). Compounds were tested at a concentration […], standard for this assay. They were preincubated with a NADPH generator system in a phosphate buffer (pH 7.4) for 5 minutes at 37° C. The reaction was started by adding the specific CYP enzymes, substrate and bovine serum albumin (BSA<0.4 mg/ml). Incubations were performed between 20-50 minutes at 37° C. according to the specific parameter of each fluorogenic substrate, for the evaluated component. Fluorescence at each well was detected before and after the incubation period.

CYP2C9 = CYP2C9 (Homo sapiens (Human), UniProt P11712); test: CYP inhibition, fluorogenic substrate; type: in vitro ADME; set-up: dose or concentration left out as unconfirmed; conditions: recombinant CYP2C9, pH 7.4
Source text: as §2

CYP2C19 = CYP2C19 (Homo sapiens (Human), UniProt P33261); test: CYP inhibition, fluorogenic substrate; type: in vitro ADME; set-up: dose or concentration left out as unconfirmed; conditions: recombinant CYP2C19, pH 7.4
Source text: as §2

CYP2B6 = CYP2B6 (Homo sapiens (Human), UniProt P20813); test: CYP inhibition, fluorogenic substrate; type: in vitro ADME; set-up: dose or concentration left out as unconfirmed; conditions: recombinant CYP2B6, pH 7.4
Source text: as §2

CYP2D6 = CYP2D6 (Homo sapiens (Human), UniProt P10635); test: CYP inhibition, fluorogenic substrate; type: in vitro ADME; set-up: dose or concentration left out as unconfirmed; conditions: recombinant CYP2D6, pH 7.4
Source text: as §2

[2] = oral, estimated, from literature; cited from earlier work
[3] = tested on: mouse hepatocytes (CD-1 males); test: Intrinsic clearance in cryopreserved mouse hepatocytes; type: in vitro ADME
Protocol: as §1

[4] = target: P450 cytochrome 1A2 (CYP1A2) (Homo sapiens (Human), UniProt P05177); conditions: cited from earlier work
[5] = Pharmacokinetics (PK) in rat, I.V. and oral; type: in vivo, Wistar-Han rats
Protocol: […] The study lasted for 2 weeks (including acclimation time and study), in which the route of administration was made by injection into the caudal vein and oral gavage. The treatment was carried out in a single dose: I.V. group with dose of 1 mg/kg and Oral group with dose of 10 mg/kg. […] Clinical observations were made twice a day (morning and afternoon) in the pre-dose at the 08 time points defined in the protocol. Blood collection was performed after euthanasia in the pre-dose animals at 08 defined time points and at 24 hours post-dose. The pharmacokinetic analysis parameters detected for Group IV were: half-life (t½), drug concentration at time zero (C0), last measurable plasma concentration (AUClast), area under the plasma concentration curve extrapolation percentage (AUC % ext), area under the plasma concentration curve extrapolation to infinity (AUCinf), volume of distribution (Vz), steady state volume of distribution (Vss), clearance (CL) and mean residence time (MRT). The parameters evaluated for the Oral group were: bioavailability (F %), maximum concentration reached (Cmax), time to reach maximum plasma concentration (Tmax), last measurable plasma concentration (AUClast), area under the plasma concentration curve extrapolation percentage (AUC % ext), area under the plasma concentration curve extrapolation to infinity (AUCinf), area under the plasma concentration curve extrapolation to infinity versus dose (AUCinf/Dose), half-Life (t½), and mean residence time (MRT).

[6] = Permeability in Caco-2 cells; type: in vitro ADME; conditions: human, Caco-2, pH 6.5, 37° C.
Protocol: Permeability tests were performed using Caco-2 cells, a colorectal epithelial adenocarcinoma cell line. These cells resemble intestinal epithelial cells in some aspects, such as the formation of a polarized monolayer, a well-defined brush border on the apical surface, and intercellular junctions.
The test is performed in both directions [apical to basolateral (A-B) and basolateral to apical (B-A)] through the cell monolayer, allowing an efflux ratio that provides an indicator as to whether a compound undergoes active efflux. Particle detection was performed with HPLC-MS/MS (mass spectrometry) according to the calculation of the peak area of the result. MS/MS was performed by combining two mass detectors in a single instrument.
A-B permeability was performed at pH 6.5/7.4 with incubation time of 0 and 60 minutes at 37° C. and B-A permeability was performed at pH 6.5/7.4 with incubation time of 0 and 40 minutes at 37° C.

human hepatocytes = test: Intrinsic clearance in cryopreserved human hepatocytes; type: in vitro ADME
Protocol: as §1

[7] = Wistar-Han, plasma, intravenous 1 mg/kg

CYP2B6, sequence (P20813 whole entry): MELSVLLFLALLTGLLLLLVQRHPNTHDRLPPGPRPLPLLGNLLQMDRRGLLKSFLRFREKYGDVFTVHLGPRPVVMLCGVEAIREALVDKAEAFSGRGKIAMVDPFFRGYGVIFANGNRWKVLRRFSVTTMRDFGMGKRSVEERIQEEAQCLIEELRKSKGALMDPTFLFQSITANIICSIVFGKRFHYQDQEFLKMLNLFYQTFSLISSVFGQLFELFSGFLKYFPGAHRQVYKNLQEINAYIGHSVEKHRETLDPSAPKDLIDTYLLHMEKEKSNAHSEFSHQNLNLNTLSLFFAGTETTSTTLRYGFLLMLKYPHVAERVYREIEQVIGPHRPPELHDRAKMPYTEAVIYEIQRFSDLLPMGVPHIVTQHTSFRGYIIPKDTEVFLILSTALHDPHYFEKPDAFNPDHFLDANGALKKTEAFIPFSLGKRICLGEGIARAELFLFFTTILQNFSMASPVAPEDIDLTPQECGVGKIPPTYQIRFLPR
CYP2D6, sequence (P10635 whole entry): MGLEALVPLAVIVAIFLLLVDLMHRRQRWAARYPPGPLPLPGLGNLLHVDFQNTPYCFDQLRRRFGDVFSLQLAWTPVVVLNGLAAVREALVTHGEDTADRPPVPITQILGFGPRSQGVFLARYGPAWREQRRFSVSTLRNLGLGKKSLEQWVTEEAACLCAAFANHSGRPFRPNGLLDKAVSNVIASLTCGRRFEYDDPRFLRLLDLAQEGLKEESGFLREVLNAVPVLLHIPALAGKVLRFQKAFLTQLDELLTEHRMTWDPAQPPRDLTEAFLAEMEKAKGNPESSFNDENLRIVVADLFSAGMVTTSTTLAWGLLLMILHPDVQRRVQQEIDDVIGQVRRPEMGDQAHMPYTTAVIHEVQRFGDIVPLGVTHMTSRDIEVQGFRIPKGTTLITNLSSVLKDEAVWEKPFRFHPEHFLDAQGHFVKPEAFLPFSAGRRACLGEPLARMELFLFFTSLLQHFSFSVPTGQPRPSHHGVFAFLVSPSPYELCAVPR
P450 cytochrome 1A2 (CYP1A2), sequence (P05177 whole entry): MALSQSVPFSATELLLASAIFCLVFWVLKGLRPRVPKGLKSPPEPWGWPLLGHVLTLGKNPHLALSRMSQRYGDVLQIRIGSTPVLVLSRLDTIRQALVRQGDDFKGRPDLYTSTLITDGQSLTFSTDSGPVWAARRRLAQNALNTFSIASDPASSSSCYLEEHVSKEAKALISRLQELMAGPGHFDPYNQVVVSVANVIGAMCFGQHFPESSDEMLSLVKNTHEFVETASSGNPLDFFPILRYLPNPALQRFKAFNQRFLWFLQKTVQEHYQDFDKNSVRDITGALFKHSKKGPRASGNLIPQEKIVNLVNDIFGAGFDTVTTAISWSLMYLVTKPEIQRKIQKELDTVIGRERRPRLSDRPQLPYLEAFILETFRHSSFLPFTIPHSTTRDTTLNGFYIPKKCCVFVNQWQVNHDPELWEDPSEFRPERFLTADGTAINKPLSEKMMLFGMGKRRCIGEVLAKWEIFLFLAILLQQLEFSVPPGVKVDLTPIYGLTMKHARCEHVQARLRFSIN
CYP2C19, sequence (P33261 whole entry): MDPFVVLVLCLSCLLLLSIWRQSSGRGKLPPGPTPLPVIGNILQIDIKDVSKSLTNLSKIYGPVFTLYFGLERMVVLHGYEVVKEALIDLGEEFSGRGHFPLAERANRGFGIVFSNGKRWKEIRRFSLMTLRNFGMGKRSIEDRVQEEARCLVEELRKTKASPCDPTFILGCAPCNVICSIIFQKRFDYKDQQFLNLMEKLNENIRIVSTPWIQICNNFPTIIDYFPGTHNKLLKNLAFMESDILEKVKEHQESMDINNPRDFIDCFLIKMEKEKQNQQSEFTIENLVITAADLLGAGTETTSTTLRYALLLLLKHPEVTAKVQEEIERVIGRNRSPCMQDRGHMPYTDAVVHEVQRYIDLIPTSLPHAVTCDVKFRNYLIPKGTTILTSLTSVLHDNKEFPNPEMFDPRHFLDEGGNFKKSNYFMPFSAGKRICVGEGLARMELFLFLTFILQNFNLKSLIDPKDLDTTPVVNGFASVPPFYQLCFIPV
CYP2C8, sequence (P10632 whole entry): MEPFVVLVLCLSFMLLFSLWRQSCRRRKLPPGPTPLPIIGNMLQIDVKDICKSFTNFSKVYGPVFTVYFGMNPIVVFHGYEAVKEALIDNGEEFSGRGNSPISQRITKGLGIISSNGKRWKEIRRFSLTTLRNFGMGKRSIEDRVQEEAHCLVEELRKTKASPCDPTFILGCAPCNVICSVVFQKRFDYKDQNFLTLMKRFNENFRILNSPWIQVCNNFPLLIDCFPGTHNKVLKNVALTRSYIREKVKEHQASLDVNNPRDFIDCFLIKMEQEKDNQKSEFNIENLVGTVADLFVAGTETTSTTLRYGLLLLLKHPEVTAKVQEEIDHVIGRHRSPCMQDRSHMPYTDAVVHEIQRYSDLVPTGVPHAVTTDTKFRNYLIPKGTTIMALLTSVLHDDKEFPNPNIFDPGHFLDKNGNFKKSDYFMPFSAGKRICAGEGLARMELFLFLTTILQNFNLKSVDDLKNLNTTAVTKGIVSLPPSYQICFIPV
CYP2C9, sequence (P11712 whole entry): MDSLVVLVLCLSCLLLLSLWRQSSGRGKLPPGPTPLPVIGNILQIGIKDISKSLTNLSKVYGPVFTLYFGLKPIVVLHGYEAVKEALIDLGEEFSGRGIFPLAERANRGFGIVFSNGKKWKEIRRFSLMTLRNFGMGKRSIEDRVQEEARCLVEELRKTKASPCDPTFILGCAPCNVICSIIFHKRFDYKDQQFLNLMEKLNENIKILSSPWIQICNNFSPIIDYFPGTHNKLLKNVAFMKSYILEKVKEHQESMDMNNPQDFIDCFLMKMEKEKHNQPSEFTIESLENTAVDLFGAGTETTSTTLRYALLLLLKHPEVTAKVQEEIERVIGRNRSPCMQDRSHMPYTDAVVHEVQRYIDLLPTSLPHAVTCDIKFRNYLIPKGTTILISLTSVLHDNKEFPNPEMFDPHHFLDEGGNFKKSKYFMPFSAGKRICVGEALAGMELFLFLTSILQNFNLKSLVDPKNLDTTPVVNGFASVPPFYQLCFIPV

Question: Which “Intrinsic clearance half-life, Rat Sprague-Dawley” value [1] does the source give for `COc1ccc2cccc(CCNC(C)=O)c2c1` [IA2-76, agomelatine, reference compound] here?
Answer: 50 min

Question: What about the “share metabolized by CYP2C9 and CYP2C19” value (CYP2C9 and CYP2C19) of the same molecule?
Answer: 10%

Question: And the inhibition (CYP2C8)?
Answer: 12.9%

Question: What about the inhibition (CYP2C9) of the same molecule?
Answer: -19.3%

Question: And the inhibition (CYP2C19)?
Answer: 44.4%

Question: And the inhibition (CYP2B6)?
Answer: 1.8%

Question: What about the inhibition (CYP2D6) of the same molecule?
Answer: 7.9%

Question: And the absolute bioavailability [2]?
Answer: 1%

Question: And the “Intrinsic clearance half-life, Mouse CD-1” value [3]?
Answer: 25 min

Question: And the “share metabolized in the liver by CYP1A2” value [4]?
Answer: Around 90%

Question: What about the clearance [5, 7] of the same molecule?
Answer: 39.1 mL/min/kg

Question: What about the half-life [5, 7] of the same molecule?
Answer: 17.7 min

Question: And the AUC(0-t) ([5]; Wistar-Han, plasma, oral 10 mg/kg)?
Answer: 1020 ng·h/mL

Question: And the bioavailability ([5]; Wistar-Han, plasma, oral 10 mg/kg vs intravenous 1 mg/kg, read-out: F (%) bioavailability)?
Answer: 22.6%

Question: And the CL ([5]; intravenous 1 mg/kg)?
Answer: 39.1 mL/min/kg

Question: What about the T1/2 ([5]; intravenous 1 mg/kg) of the same molecule?
Answer: 17.7 min

Question: And the AUClast ([5]; oral 10 mg/kg)?
Answer: 1025 ng·h/mL

Question: What about the “F (%) bioavailability” value ([5]; oral 10 mg/kg vs intravenous 1 mg/kg) of the same molecule?
Answer: 22.6%

Question: And the Papp A→B at 60 min ([6]; apical to basolateral, 60 min, read-out: Permeability A-B (pH 6.5/7.4))?
Answer: 83.9 ×10⁻⁶ cm/s

Question: And the Papp B→A at 40 min ([6]; basolateral to apical, 40 min, read-out: Permeability B-A (pH 6.5/7.4))?
Answer: 48.5 ×10⁻⁶ cm/s

Question: And the “Intrinsic clearance half-life, Human” value (human hepatocytes)?
Answer: 48 min
